Patent publication US20020039567A1, “Methods of treating bone or cartilage conditions by the administration of creatine” (priority 1998, published 2002)

How the values were obtained:
[1] = tested on: osteoblasts (micromass culture); assay: Mineralization, micromass osteoblast cell culture; assay type: cell-based, rat
Procedure: This isolation technique is based on the ability of osteoblasts to migrate from bone onto a substratum. Parietal and frontal calvariae (4 per animal) were aseptically explanted from 6 day-old IcoIbm rats. The calvariae were placed in Tyrode's balanced salt solution, calcium and magnesium free (TESS). The periosteum was enzymatically removed with 0.05% trypsin and 0.02% collagenase A (0.76 U/mg) dissolved in TBSS (40 calvaria/20 ml). The calvariae were shaken for 70 minutes in a waterbath at 37° C. They were washed with TESS and then transferred to 60 mm culture dishes (40 calvariae/dish) containing 5 ml of 0.02% collagenase A (0.76 U/mg) in culture medium BGJb Fitton-Jackson modification and placed in the incubator for 4 hours. The calvariae were then washed with culture medium B supplemented with 10% foetal calf serum (FCS). The calvariae were transferred into 60 mm culture dishes (4 frontal and 4 parietal/dish). The growth medium supplemented with 10% FCS and 50 μg/ml ascorbate was completely changed every 48 hours. The culture was kept for 3 weeks. After 3 weeks the migrated cells were harvested. The dish was washed with TESS, and 5 ml of TESS containing 0.05% trypsin and 0.02% collagenase A (0.76 U/mg) was added. After 1 hour in the incubator, the dish was washed with culture medium BGJb supplemented with 10% FCS. The dishes containing the calvariae and cells were rinsed with serum containing media BGJb. The cells obtained were filtered through a 40 μm nylon mesh to remove bone debris and cell aggregates. The suspended cells were centrifuged at 600 g for 5 minutes. The cell pellet was resuspended in serum containing medium BGJb and centrifuged. The viability of the resuspended cells was examined by the dye exclusion of 0.4% trypan blue, and the cells were counted in a haeinocytometer. The inoculation densities were 2·10^5/10 cm^2 for monolayer and 2·10^5/30 μl for micromasses. The micromass cultures were kept for 1 hour in the incubator before 2 ml growth medium was added. All the cultures were kept at 37° C. in a humidified atmosphere of 5% CO2, 95% air. All culture media were supplemented with 50 μg/ml ascorbate. To analyze the collagen types, 60 μg/ml beta-aminopropionitrile (beta-APN) was added to the culture medium. During cell isolation and inoculation, no ascorbate was used to increase plating efficiency. No antibiotics and no beta-glycerophosphate were added. The media were completely changed every 48 hours (60 mm culture dish 5 ml; 35 mm culture dish 2 ml). The most specific method for detecting calcified matrices is the von Kossa reaction. Silver staining indicates the presence of calcium phosphate aggregated with certain organic acids. Structural details are completely obscured by the dark precipitate. Calcified tissue components are darkened in various shades from light brown to deep black, irrespective of their mineral content. [table]

[2] = tested on: osteoblasts (micromass culture); assay: Cell viability (neutral red uptake), micromass osteoblast cell culture; assay type: cell-based, rat; details: 20 mM creatine; 3 weeks; vs control (p<0.005) and 10 mM creatine (p<0.003)
Procedure: This isolation technique is based on the ability of osteoblasts to migrate from bone onto a substratum. Parietal and frontal calvariae (4 per animal) were aseptically explanted from 6 day-old IcoIbm rats. The calvariae were placed in Tyrode's balanced salt solution, calcium and magnesium free (TESS). The periosteum was enzymatically removed with 0.05% trypsin and 0.02% collagenase A (0.76 U/mg) dissolved in TBSS (40 calvaria/20 ml). The calvariae were shaken for 70 minutes in a waterbath at 37° C. They were washed with TESS and then transferred to 60 mm culture dishes (40 calvariae/dish) containing 5 ml of 0.02% collagenase A (0.76 U/mg) in culture medium BGJb Fitton-Jackson modification and placed in the incubator for 4 hours. The calvariae were then washed with culture medium B supplemented with 10% foetal calf serum (FCS). The calvariae were transferred into 60 mm culture dishes (4 frontal and 4 parietal/dish). The growth medium supplemented with 10% FCS and 50 μg/ml ascorbate was completely changed every 48 hours. The culture was kept for 3 weeks. […] The viability of the resuspended cells was examined by the dye exclusion of 0.4% trypan blue, and the cells were counted in a haeinocytometer. […] The absorbance of the supernatant (3 aliquots/dish) was read at 540 nm versus extraction buffer. […] If the absorbance was higher than 1, the samples were diluted with extraction buffer.

embryonic chick femora = details: cited from earlier work

CN(CC(=O)O)C(=N)N [creatine]
mineralized area (FIG. 4) ([1]; 10 mM creatine vs control, 2 weeks, p<0.00025): significantly more mineralization
mineralized area (FIG. 4) ([1]; 10 mM creatine vs control, 3 weeks, p<0.0035): significantly higher
mineralization (FIG. 4) ([1]; 10 mM creatine, 3 weeks vs 2 weeks, p<0.0015): significantly higher mineralization
mineralized area (FIG. 4) ([1]; 20 mM creatine vs control, 2 weeks, p<0.00025): significantly more mineralization
mineralized area (FIG. 4) ([1]; 20 mM creatine vs control, 3 weeks, p<0.03): significantly higher
NR uptake [2]: significantly lower NR uptake
perichondral ossification in the diaphysis (embryonic chick femora; 0.1 mM in chick embryo extract with 20% horse serum): accelerated
deposition of calcium in the cartilage matrix of the epiphysis (embryonic chick femora; very crude preparations at 0.1 mM in chick embryo extract with 20% horse serum): accelerated
